Data reported in patent US9434994B2, “Methods for prediction of clinical outcome to epidermal growth factor receptor inhibitors by non-small cell lung cancer patients” (The Regents of the University of Colorado, a body corporate, priority 2004, dated 2016).
“And” between values parts separate entries of the source, which are not always exact repeats. Identical values can stand only once. Like-named read-outs stand apart in the source and are kept apart here.

Test system: advanced non-small-cell lung cancer patients
[1] = EGFR FISH Group 1 (disomy to low polysomy)
[2] = EGFR FISH Group 2 (high polysomy, amplification)
[3] = EGFR FISH- and/or P-Akt- (any negative)
[4] = EGFR IHC- and/or P-Akt- (any negative)
[5] = EGFR mutation- and/or P-Akt- (any negative)
[6] = HER2 FISH+ and/or EGFR IHC+ (other three groups combined)

Experimental: Eligibility included histologically confirmed NSCLC patients with measurable, locally advanced or metastatic disease, who had progressed or relapsed after chemotherapy, and patients ineligible for chemotherapy because they were elderly, had poor performance status, or comorbid medical condition. Before trial inclusion, smoking status was assessed and patients were classified as never, former (smoking cessation >6 months prior to trial inclusion), or current smokers (cessation <6 months before trial inclusion or active smoker).
Patients were evaluated for response according to the RECIST criteria (30). Tumor response was assessed by computer tomography scan every two months, with a confirmatory evaluation to be repeated in responding patients at least 4 weeks after the initial determination of response. […] Survival (OS) was calculated from the date of therapy initiation to the date of death or last contact.
Differences between the FISH groups were compared by Fisher's exact test or χ^2 test for qualitative variables and by t-student test or ANOVA for continuous variables. Normality of the distribution was assessed by Kolmogorov-Smirnov test. […] Risk factors associated with survival were evaluated using Cox's proportional-hazards regression model with a step-down procedure (33). Only those variables with significant results in univariate analysis were included in the multivariate analysis. The criteria for variable removal was the likelihood ratio statistic based on the maximum partial likelihood estimated (default p-value=0.10 for removal from the model).
Complete clinical information and tissue blocks were available from 80 out of 106 patients enrolled in the Akt clinical trial (Cappuzzo et al., ibid.), and from an additional 22 patients in the Expanded Access Study who were treated consecutively at the end of the Akt study and followed in the same way as patients in the Akt trial.
Eligibility for both studies included histologically confirmed NSCLC with measurable, locally advanced or metastatic disease, progressing or relapsing after chemotherapy or with medical contraindications for chemotherapy. Patients had performance status ranging from grade 0 to 2. Performance status was defined according to Eastern Cooperative Oncology Group (Oken et al., 1982) and considered grade 0 when the patient was fully active and able to perform all pre-disease activities without restriction, grade 1 when the patient was restricted in physically strenuous activity but ambulatory and able to perform work of a light or sedentary nature, and grade 2 when the patient was ambulatory and capable of all self-care but unable to perform any work activities.
Tumor response was assessed by computer tomography scan after 2 months, with a confirmatory evaluation to be repeated in responders and in patients with stable disease at least 4 weeks after the initial determination of response. […] Survival was calculated from the date of therapy initiation to the date of death or to the date of last contact.
Differences between and among groups were compared using Fisher's exact test or Pearson's chi square test for qualitative variables and using student's t test or analysis of variance for continuous variables. Normality of the distribution was assessed using the Kolmogorov-Smirnov test (Curiel et al., 1990).

`COc1cc2ncnc(Nc3ccc(F)c(Cl)c3)c2cc1OCCCN1CCOCC1` [gefitinib] was tested, and the “Patients progressed at 12 months” value (EGFR FISH Group 1) was 91%, the Two-year survival rate (EGFR FISH Group 1) was 17% and the “% Patients without disease progression at 12 months” value [1] was 8.7%. For the same compound, the “Complete and Partial Response” value [1] was 2.9%, the “Median Time to Progression” value [1] was 2.5 months and the “One-year Survival Rate” value [1] was 36.2%. The “Progressive Disease” value [1] was 73.9%, the “Stable Disease” value [1] was 23.2% and the “Patients progressed at 12 months” value (EGFR FISH Group 2) was 61%. The Two-year survival rate (EGFR FISH Group 2) was 40%, the “% Patients without disease progression at 12 months” value [2] was 39.4% and the “Complete and Partial Response” value [2] was 36% and 36.4%. For the same compound, the “Disease Control Rate” value [2] was 66.7%, the “Median Time to Progression” value [2] was 6.3 months and the “One-year Survival Rate” value [2] was 63.6%. For the same compound, the “Progressive Disease” value [2] was 33.3%, the “Stable Disease” value [2] was 30.3% and the “% Patients without disease progression at 12 months” value (EGFR FISH disomy) was 8.3%. The “Complete and Partial Response” value (EGFR FISH disomy) was “no responders”, the “Median Time to Progression” value (EGFR FISH disomy) was 2.5 months and the “One-year Survival Rate” value (EGFR FISH disomy) was 38.9%. For the same compound, the “Progressive Disease” value (EGFR FISH disomy) was 75%, the “Stable Disease” value (EGFR FISH disomy) was 25.0% and the “% Patients without disease progression at 12 months” value (EGFR FISH high polysomy) was 35.0%. The “Disease Control Rate” value (EGFR FISH high polysomy) was 60.0%, the “Median Time to Progression” value (EGFR FISH high polysomy) was 6.6 months and the “One-year Survival Rate” value (EGFR FISH high polysomy) was 65.0%. For the same compound, the “Progressive Disease” value (EGFR FISH high polysomy) was 40%, the “Stable Disease” value (EGFR FISH high polysomy) was 35% and the “% Patients without disease progression at 12 months” value (EGFR FISH high trisomy) was 100%. For the same compound, the “Complete and Partial Response” value (EGFR FISH high trisomy) was 100%, the “Disease Control Rate” value (EGFR FISH high trisomy) was 100% and the “Median Overall Survival” value (EGFR FISH high trisomy) was 13.7 months. The “One-year Survival Rate” value (EGFR FISH high trisomy) was 100%, the “% Patients without disease progression at 12 months” value (EGFR FISH low polysomy) was 0% and the “Complete and Partial Response” value (EGFR FISH low polysomy) was “no responders”. The “Disease Control Rate” value (EGFR FISH low polysomy) was 14.3%, the “Median Overall Survival” value (EGFR FISH low polysomy) was 3.0 months and the “Median Time to Progression” value (EGFR FISH low polysomy) was 2.1 months. The “Progressive Disease” value (EGFR FISH low polysomy) was 86% and 85.7%, the “Stable Disease” value (EGFR FISH low polysomy) was 14.3% and the “% Patients without disease progression at 12 months” value (EGFR FISH low trisomy) was 5.9%. The “Complete and Partial Response” value (EGFR FISH low trisomy) was “no responders”, the “Disease Control Rate” value (EGFR FISH low trisomy) was 29.4% and the “Median Overall Survival” value (EGFR FISH low trisomy) was 10.2 months. For the same compound, the “Median Time to Progression” value (EGFR FISH low trisomy) was 3.6 months, the “One-year Survival Rate” value (EGFR FISH low trisomy) was 41.2% and the “Progressive Disease” value (EGFR FISH low trisomy) was 71% and 70.6%. For the same compound, the “Stable Disease” value (EGFR FISH low trisomy) was 29.4%, the “1-year Cumulative Survival ± SD” value (EGFR FISH+/P-Akt+) was 33 ± 9% and the “Median Survival” value (EGFR FISH+/P-Akt+) was 18.7 months. For the same compound, the “1-year Cumulative Survival ± SD” value (EGFR FISH+/P-Akt-) was 75 ± 22%, the “Median Time to Progression” value (EGFR FISH+/P-Akt-) was 1.1 months and the “Objective Response” value (EGFR FISH+/P-Akt-) was 0%. The “Disease Control Rate” value [3] was 28% and 19/27%, the “Median Time to Progression” value [3] was 2.5 months and the “Objective Response” value [3] was 3% and 2/3%. The “Median Time to Progression” value (EGFR FISH-/P-Akt+) was 2.6 months, the “Objective Response” value (EGFR FISH-/P-Akt+) was 5% and 2/5% and the “1-year Cumulative Survival ± SD” value (EGFR FISH-/P-Akt-) was 57 ± 9%. The “Disease Control Rate” value (EGFR FISH-/P-Akt-) was 6/22%, the “Median Time to Progression” value (EGFR FISH-/P-Akt-) was 2.4 months and the “Objective Response” value (EGFR FISH-/P-Akt-) was 0%. For the same compound, the 1-year survival (EGFR IHC score 0-99) was 27% and 27 ± 10%, the “MS (median overall survival)” value (EGFR IHC score 0-99) was 4.5 mo and the “PD (progressive disease)” value (EGFR IHC score 0-99) was 19 (95%). For the same compound, the TTP (EGFR IHC score 0-99) was 2.1 mo, the 1-year survival (EGFR IHC score 100-199) was 35% and 35 ± 10% and the “MS (median overall survival)” value (EGFR IHC score 100-199) was 5.3 mo. For the same compound, the “OR (objective response)” value (EGFR IHC score 100-199) was 2 (10%), the TTP (EGFR IHC score 100-199) was 2.3 mo and the “MS (median overall survival)” value (EGFR IHC score 200-299) was 15.2 mo. For the same compound, the “OR (objective response)” value (EGFR IHC score 200-299) was 4 (26%), the “PD (progressive disease)” value (EGFR IHC score 200-299) was 5 (33%) and the “MS (median overall survival)” value (EGFR IHC score 300-400) was 11.3 mo. For the same compound, the “PD (progressive disease)” value (EGFR IHC score 300-400) was 21 (49%), the TTP (EGFR IHC score 300-400) was 4.5 mo and the 1-year survival (EGFR IHC+ (≧200)) was 48 ± 7%. For the same compound, the “MS (median overall survival)” value (EGFR IHC+ (≧200)) was 11.5 mo, the TTP (EGFR IHC+ (≧200)) was 5.2 mo and the “Median Time to Progression” value (EGFR IHC+/P-Akt+) was 6.2 months. The “1-year Cumulative Survival ± SD” value (EGFR IHC+/P-Akt-) was 35 ± 12%, the “Median Time to Progression” value (EGFR IHC+/P-Akt-) was 1.8 months and the “Objective Response” value (EGFR IHC+/P-Akt-) was 0%. For the same compound, the 1-year survival (EGFR IHC- (<200)) was 31 ± 7%, the “MS (median overall survival)” value (EGFR IHC- (<200)) was 5.0 mo and the TTP (EGFR IHC- (<200)) was 2.3 mo. The “1-year Cumulative Survival ± SD” value [4] was 35 ± 7%, the “Median Time to Progression” value [4] was 2.3 months and the “Objective Response” value [4] was 4% and 2/3%. The “Disease Control Rate” value (EGFR IHC-/P-Akt+) was 7/27%, the “Median Time to Progression” value (EGFR IHC-/P-Akt+) was 2.3 months and the “Objective Response” value (EGFR IHC-/P-Akt+) was 2/8%. The “1-year Cumulative Survival ± SD” value (EGFR IHC-/P-Akt-) was 54 ± 8%, the “Disease Control Rate” value (EGFR IHC-/P-Akt-) was 1/7% and the “Median Survival” value (EGFR IHC-/P-Akt-) was 4.2 months. The “Median Time to Progression” value (EGFR IHC-/P-Akt-) was 2.0 months, the “Objective Response” value (EGFR IHC-/P-Akt-) was 0% and the “Median Survival” value (EGFR Mutation+/P-Akt+) was 20.8 months. The “Median Time to Progression” value (EGFR Mutation+/P-Akt+) was 11.2 months, the “Disease Control Rate” value (EGFR Mutation+/P-Akt-) was 0% and the “Median Survival” value (EGFR Mutation+/P-Akt-) was 3.1 months. The “Median Time to Progression” value (EGFR Mutation+/P-Akt-) was 1.1 months, the “Objective Response” value (EGFR Mutation+/P-Akt-) was 0% and the “1-year Cumulative Survival ± SD” value (EGFR Mutation-/P-Akt+) was 50 ± 35%. The “Median Time to Progression” value (EGFR Mutation-/P-Akt+) was 2.7 months, the “Objective Response” value (EGFR Mutation-/P-Akt+) was 4/9% and the “1-year Cumulative Survival ± SD” value (EGFR Mutation-/P-Akt-) was 65 ± 14%. The “Disease Control Rate” value (EGFR Mutation-/P-Akt-) was 6/22%, the “Median Time to Progression” value (EGFR Mutation-/P-Akt-) was 2.4 months and the “Objective Response” value (EGFR Mutation-/P-Akt-) was 0%. The “% Patients without disease progression at 12 months” value (EGFR gene amplification) was 46.2%, the “Complete and Partial Response” value (EGFR gene amplification) was 53.8% and 54% and the “Disease Control Rate” value (EGFR gene amplification) was 76% and 76.9%. The “Median Time to Progression” value (EGFR gene amplification) was 6.0 months, the “One-year Survival Rate” value (EGFR gene amplification) was 61.5% and the “Progressive Disease” value (EGFR gene amplification) was 23.1%. For the same compound, the “Stable Disease” value (EGFR gene amplification) was 23.1%, the 1-year survival (EGFR mutation absent) was 38 ± 6 and the PD (EGFR mutation absent) was 50 (68%). The TTP (EGFR mutation absent) was 2.6 mo, the 1-year survival (EGFR mutation present) was 57 ± 13 and the MS (EGFR mutation present) was 20.8 mo. The TTP (EGFR mutation present) was 9.9 mo, the “Disease Control Rate” value [5] was 32% and 23/31% and the “Median Time to Progression” value [5] was 2.6 months. The “Objective Response” value [5] was 6% and 4/5%, the DCR (HER2 FISH+) was 56.5% and the OR (HER2 FISH+) was 34.8%. It also gave an OS (HER2 FISH+) of 20.8 months, a TTP (HER2 FISH+) of 9.05 months and a DCR (HER2 FISH+ and/or EGFR FISH+) of 57.1%. It also gave an OR (HER2 FISH+ and/or EGFR FISH+) of 28.6%, a DCR [6] of 51.5% and an OR [6] of 19.1%. It also gave an OR (HER2 FISH+ and/or EGFR mutation+ (other groups combined)) of 30.8%, a DCR (HER2 FISH+/EGFR FISH+) of 76.9% and an OR (HER2 FISH+/EGFR FISH+) of 53.8%. The “median OS” value (HER2 FISH+/EGFR FISH+) was 20.8 months, the “median TTP” value (HER2 FISH+/EGFR FISH+) was 9.8 months and the OR (HER2 FISH+/EGFR FISH-) was 21.0%. For the same compound, the “median TTP” value (HER2 FISH+/EGFR FISH-) was 2.3 months, the DCR (HER2 FISH+/EGFR IHC+) was 76.9% and the OR (HER2 FISH+/EGFR IHC+) was 53.8%. The OS (HER2 FISH+/EGFR IHC+) was 20.8 months.
